In publication PMC12028158, “Synthesis and In Vitro Evaluation of the Anticancer Effect of Novel Phosphonium Vindoline Derivatives” (International Journal of Molecular Sciences, 2025):
Where two headings read alike, the source gives them in different places.

Legend:
Type in all cases: cell-based
IGROV1 [1] = test: NCI60 one-dose screen; details: Homo sapiens
MALME-3M [2] = test: NCI60 one-dose screen; details: Homo sapiens, read-out: Growth percent
HCC-2998 = test: NCI60 five-dose screen; details: Homo sapiens
CCRF-CEM [3] = test: NCI60 one-dose screen; details: Homo sapiens, read-out: Growth percent
SK-MEL-2 = test: NCI60 one-dose screen; details: Homo sapiens
Breast Cancer panel = test: NCI60 five-dose screen, panel mean; details: Homo sapiens
LOX IMVI = test: NCI60 one-dose screen; details: Homo sapiens, read-out: Growth percent
MALME-3M [4] = test: NCI60 five-dose screen; details: Homo sapiens
ACHN [5] = test: NCI60 five-dose screen; details: Homo sapiens
HS 578T = test: NCI60 one-dose screen; details: Homo sapiens, read-out: Growth percent
NCI-H522 = test: NCI60 five-dose screen; details: Homo sapiens
HT29 = test: NCI60 one-dose screen; details: Homo sapiens
DU-145 = test: NCI60 one-dose screen; details: Homo sapiens
SW-620 = test: NCI60 five-dose screen; details: Homo sapiens
SF-268 [6] = test: NCI60 five-dose screen; details: Homo sapiens
SF-268 [7] = test: NCI60 one-dose screen; details: Homo sapiens
COLO 205 [8] = test: NCI60 one-dose screen; details: Homo sapiens
OVCAR-4 = test: NCI60 five-dose screen; details: Homo sapiens
CNS Cancer panel = test: NCI60 five-dose screen, panel mean; details: Homo sapiens
HL-60(TB) = test: NCI60 five-dose screen; details: Homo sapiens
U251 = test: NCI60 five-dose screen; details: Homo sapiens
OVCAR-3 = test: NCI60 five-dose screen; details: Homo sapiens
SNB-19 = test: NCI60 one-dose screen; details: Homo sapiens
[9] = system: 60 human tumor cell lines (NCI60); test: NCI60 one-dose screen, overall mean; details: for activity at 10 µM: Homo sapiens, read-out: Mean growth percent
KM12 = test: NCI60 five-dose screen; details: Homo sapiens
RPMI-8226 = test: NCI60 five-dose screen; details: Homo sapiens
EKVX [10] = test: NCI60 one-dose screen; details: Homo sapiens, read-out: Growth percent
SK-MEL-5 = test: NCI60 one-dose screen; details: Homo sapiens
HOP-62 = test: NCI60 five-dose screen; details: Homo sapiens
HOP-92 = test: NCI60 five-dose screen; details: Homo sapiens
MDA-MB-468 = test: NCI60 five-dose screen; details: Homo sapiens
ACHN [11] = test: NCI60 one-dose screen; details: Homo sapiens, read-out: Growth percent
A549/ATCC = test: NCI60 five-dose screen; details: Homo sapiens
MDA-MB-435 [12] = test: NCI60 five-dose screen; details: Homo sapiens
NCI-H23 = test: NCI60 one-dose screen; details: Homo sapiens
SF-539 = test: NCI60 one-dose screen; details: Homo sapiens
NCI-H460 = test: NCI60 one-dose screen; details: Homo sapiens
TK-10 = test: NCI60 five-dose screen; details: Homo sapiens
MDA-MB-435 [13] = test: NCI60 one-dose screen; details: Homo sapiens
IGROV1 [14] = test: NCI60 five-dose screen; details: Homo sapiens, IGROV-1
T-47D = test: NCI60 five-dose screen; details: Homo sapiens, T47D
COLO 205 [15] = test: NCI60 five-dose screen; details: Homo sapiens
EKVX [16] = test: NCI60 five-dose screen; details: Homo sapiens
SF-295 = test: NCI60 five-dose screen; details: Homo sapiens
SN12C = test: NCI60 five-dose screen; details: Homo sapiens
A498 = test: NCI60 five-dose screen; details: Homo sapiens
CCRF-CEM [17] = test: NCI60 five-dose screen; details: Homo sapiens

CCC12C=CCN3CCC4(c5ccc(OC)cc5N(C)C4C(O)(C(=O)OC)C1OC(=O)c1ccc(C[P+](c4ccccc4)(c4ccccc4)c4ccccc4)cc1)C32 (stereo not drawn) [compound 12]
activity at 10 µM (IGROV1 [1]; IGROV-1, IGROV1, 10 μM, one-dose, read-out: Growth percent): -69.6%
activity at 10 µM (MALME-3M [2]; MALME-3M, 10 μM, one-dose): -95.5%
GI50 (HCC-2998; HCC-2998, Colon Cancer, read-out: GI50): 991 nM
activity at 10 µM (CCRF-CEM [3]; 10 μM, one-dose): -46.4%
activity at 10 µM (SK-MEL-2; SK-MEL-2, 10 μM, one-dose, read-out: Growth percent): -77.8%
GI50 (Breast Cancer panel; mean over Breast Cancer panel, read-out: GI50 Mean): 610 nM
activity at 10 µM (LOX IMVI; 10 μM, one-dose): -39.8%
GI50 (MALME-3M [4]; MALME-3M, Melanoma, read-out: GI50): 652 nM
GI50 (ACHN [5]; Renal Cancer, read-out: GI50): 18.5 µM
activity at 10 µM (HS 578T; HS 578T, 10 μM, one-dose): -36.6%
GI50 (NCI-H522; NCI-H522, Non-small Cell Lung Cancer, read-out: GI50): 491 nM
activity at 10 µM (HT29; HT-29, HT29, 10 μM, one-dose, read-out: Growth percent): -39.4%
activity at 10 µM (DU-145; DU-145, 10 μM, one-dose, read-out: Growth percent): 16.9%
GI50 (SW-620; SW-620, Colon Cancer, read-out: GI50): 1500 nM
GI50 (SF-268 [6]; SF-268, CNS Cancer, read-out: GI50): 1280 nM
activity at 10 µM (SF-268 [7]; SF-268, 10 μM, one-dose, read-out: Growth percent): -26.1%
activity at 10 µM (COLO 205 [8]; COLO 205, 10 μM, one-dose, read-out: Growth percent): -87.2%
GI50 (OVCAR-4; OVCAR-4, Ovarian Cancer, read-out: GI50): 1050 nM
GI50 (CNS Cancer panel; mean over CNS Cancer panel, read-out: GI50 Mean): 1320 nM
GI50 (HL-60(TB); HL-60, HL-60(TB), Leukemia, read-out: GI50): 297 nM
GI50 (U251; U-251, U251, CNS Cancer, read-out: GI50): 644 nM
GI50 (OVCAR-3; OVCAR-3, Ovarian Cancer, read-out: GI50): 704 nM
activity at 10 µM (SNB-19; SNB-19, 10 μM, one-dose, read-out: Growth percent): -72.2%
activity at 10 µM ([9]; mean over 60 cell lines, 10 μM, one-dose): -37.1%
cytotoxicity (in words) ([9]; one-dose, 10 µM): moderate cytotoxicity
GI50 (KM12; KM12, KM12, Colon Cancer, read-out: GI50): 514 nM
GI50 (RPMI-8226; RPMI-8226, Leukemia, read-out: GI50): 325 nM
activity at 10 µM (EKVX [10]; 10 μM, one-dose): 28.7%
activity at 10 µM (SK-MEL-5; SK-MEL-5, 10 μM, one-dose, read-out: Growth percent): -98.5%
GI50 (HOP-62; HOP-62, Non-small Cell Lung Cancer, read-out: GI50): 2670 nM
GI50 (HOP-92; HOP-92, Non-small Cell Lung Cancer, read-out: GI50): 404 nM
GI50 (MDA-MB-468; MDA-MB-468, MDA-MB-468, Breast Cancer, read-out: GI50): 186 nM
activity at 10 µM (ACHN [11]; 10 μM, one-dose): 73.7%
GI50 (A549/ATCC; A549/ATCC, Non-small Cell Lung Cancer, read-out: GI50): 2090 nM
GI50 (MDA-MB-435 [12]; MDA-MB-435, Melanoma, read-out: GI50): 483 nM
activity at 10 µM (NCI-H23; NCI-H23, 10 μM, one-dose, read-out: Growth percent): 0.48%
activity at 10 µM (SF-539; SF-539, 10 μM, one-dose, read-out: Growth percent): -90.6%
activity at 10 µM (NCI-H460; NCI-H460, 10 μM, one-dose, read-out: Growth percent): -62.8%
GI50 (TK-10; TK-10, Renal Cancer, read-out: GI50): 2840 nM
activity at 10 µM (MDA-MB-435 [13]; MDA-MB-435, 10 μM, one-dose, read-out: Growth percent): -88.8%
GI50 (IGROV1 [14]; IGROV1, Ovarian Cancer, read-out: GI50): 885 nM
GI50 (T-47D; T-47D, Breast Cancer, read-out: GI50): 525 nM
GI50 (COLO 205 [15]; COLO 205, COLO 205, Colon Cancer, read-out: GI50): 313 nM
GI50 (EKVX [16]; Non-small Cell Lung Cancer, read-out: GI50): 2030 nM
GI50 (SF-295; SF-295, CNS Cancer, read-out: GI50): 2920 nM
GI50 (SN12C; Renal Cancer, read-out: GI50): 708 nM
GI50 (A498; A498, Renal Cancer, read-out: GI50): 16.4 µM
GI50 (CCRF-CEM [17]; Leukemia, read-out: GI50): 1300 nM

CCC12C=CCN3CCC4(c5ccc(OC)cc5N(C)C4C(O)(C(=O)OC)C1OC(=O)CCC[P+](c1ccc(C)cc1)(c1ccc(C)cc1)c1ccc(C)cc1)C32 (stereo not drawn) [9a]
activity at 10 µM (IGROV1 [1]; IGROV-1, read-out: Growth percent): -89.5%
activity at 10 µM (MALME-3M [2]; Malme-3M): -94.4%
GI50 (HCC-2998; HCC 2998): 415 nM
activity at 10 µM (CCRF-CEM [3]): -67%
activity at 10 µM (SK-MEL-2; SK-MEL-2, read-out: Growth percent): -85.4%
GI50 (Breast Cancer panel; read-out: Mean GI50): 270 nM
activity at 10 µM (LOX IMVI): -89.3%
GI50 (MALME-3M [4]; Malme-3M): 220 nM
GI50 (ACHN [5]): 1.61 µM
activity at 10 µM (HS 578T; Hs-578T): -60.3%
GI50 (NCI-H522; NCI-H522): 258 nM
activity at 10 µM (HT29; HT-29, read-out: Growth percent): -80.7%
activity at 10 µM (DU-145; DU-145, read-out: Growth percent): -78.5%
GI50 (SW-620; SW-620): 434 nM
GI50 (SF-268 [6]; SF-268): 343 nM
activity at 10 µM (SF-268 [7]; SF-268, read-out: Growth percent): -46.3%
activity at 10 µM (COLO 205 [8]; COLO 205, read-out: Growth percent): -50.2%
GI50 (OVCAR-4; OVCAR-4): 370 nM
GI50 (CNS Cancer panel; read-out: Mean GI50): 360 nM
GI50 (HL-60(TB); HL-60): 162 nM
GI50 (U251; U-251): 291 nM
GI50 (OVCAR-3; OVCAR-3): 374 nM
activity at 10 µM (SNB-19; SNB-19, read-out: Growth percent): -97.3%
activity at 10 µM ([9]; 60 cell): -78.6%
average reduction / average cell death ([9]; one-dose, 10 µM, average over cell lines): more than 70%
GI50 (KM12; KM12): 376 nM
GI50 (RPMI-8226; RPMI-8226): 186 nM
activity at 10 µM (EKVX [10]): -94.7%
activity at 10 µM (SK-MEL-5; SK-MEL-5, read-out: Growth percent): -99.4%
GI50 (HOP-62; HOP-62): 470 nM
GI50 (HOP-92; HOP-92): 187 nM
GI50 (MDA-MB-468; MDA-MB-468): 165 nM
activity at 10 µM (ACHN [11]): -97.8%
GI50 (A549/ATCC; A549): 334 nM
GI50 (MDA-MB-435 [12]; MDA-MB-435): 331 nM
activity at 10 µM (NCI-H23; NCI-H23, read-out: Growth percent): -90.7%
activity at 10 µM (SF-539; SF-539, read-out: Growth percent): -96.6%
activity at 10 µM (NCI-H460; NCI-H460, read-out: Growth percent): -85.2%
GI50 (TK-10; TK-10): 600 nM
activity at 10 µM (MDA-MB-435 [13]; MDA-MB-435, read-out: Growth percent): -57.5%
GI50 (IGROV1 [14]): 383 nM
GI50 (T-47D): 314 nM
GI50 (COLO 205 [15]; COLO 205): 176 nM
GI50 (EKVX [16]): 534 nM
GI50 (SF-295; SF-295): 521 nM
GI50 (SN12C): 291 nM
GI50 (A498; A498): 1.63 µM
GI50 (CCRF-CEM [17]): 359 nM
